The test system of one data set is mice. The experiment in a line: Hexobarbital narcosis on mice. The class given is in vivo. To be noted: oral; for ED50: Mus musculus, 1 hour before Hexobarbital 40 mg/kg i.v., positive = sleeping time more than 2.5 times longer than control; for Therapeutical index: Hexobarbital narcosis. As to the method:
1. Hexobarbital narcosis on mice
Method: Kaergaard, Arch. Int. Pharmacodyn. 2, 170, (1967)
Groups consisting of 6 mice are used for each dose. The animals are treated orally with the test compound (the control group receives a vehicle), whereby sleeping is induced 1 hour later by administering a 40 mg/kg i.v. dose of Hexobarbital both to the test and control groups.
Animals which have a sleeping time more than 2.5 times longer than that of the control group are considered to show a positive reaction. ED50 values are calculated from the thus-transformed data.

For the next data set, the system named is rats. Kind of data set: Antianginal effect (vasopressin-induced experimental coronaria insufficiency, height of wave T in ECG). The data set is classed as in vivo. To be noted: Rattus norvegicus, iv, 2 minutes prior to vasopressin i.v.; narcotised male rats 180-220 g. As for the experimental part:
Male rats of 180-220 g body weight were narcotised with chloralese-urethane(70/700 mg/kg ip.). The ECG was registered with needle electrodes in standard II leading. The experimental coronaria insufficiency was induced with vasopressin (4 NE/kg i.v.). The height of wave T in ECG was measured before and after the administration of vasopressin in both the control and treated groups. Test compounds were administered intravenously 2 minutes prior to the treatment with vasopressin.

By ED50 is commonly meant the midpoint of the dose-response relation. In the data set on mice, `CN(N=Cc1c(Cl)cccc1Cl)C(=S)n1nc(N2CCOCC2)nc1N` [Example 5, 1-(5-Amino-3-morpholino-1H-1,2,4-triazol-1-yl)-N-methyl-N'-(2,6-dichlorobenzylidene)carbothiohydrazide] had an ED50 of 36 mg/kg and a Therapeutical index of 27.8.

On to `CN(N=Cc1ccc(OCC(N)=O)cc1)C(=S)n1nc(N2CCOCC2)nc1N` [Example 7, 1-(5-Amino-3-morpholino-1H-1,2,4-triazol-1-yl)-N-methyl-N'-(4-carbamoylmethoxybenzylidene)carbothiohydrazide], for which, in the data set on mice, the ED50 was 110 mg/kg and the Therapeutical index is reported as 9.1.

As for `COc1cc(C=NN(C)C(=S)n2nc(SC)nc2N)ccc1O` [Example 22, 1-(5-Amino-3-methylthio-1H-1,2,4-triazol-1-yl)-N-methyl-N'-(4-hydroxy-3-methoxybenzylidene)carbothiohydrazide], in the data set with mice, it took a dose of 110 mg/kg to reach the 50% effect level (ED50) and the Therapeutical index came out at 5.1.

As for `CC1Nc2nc(N3CCOCC3)nn2C(=S)N(C)N1` (centres unmarked) [Example 41, 6,8-Dimethyl-2-morpholino-5,6,8,9-tetrahydro[1,2,4]-triazolo-[1,5-d][1,2,4,6]tetrazepine-5(7H)-thione], in the data set on mice, the 50% effective dose (ED50) was 200 mg/kg and the Therapeutical index is given as 10.0.

With `CSc1nc2n(n1)C(=S)N(C)NC1(CCCCC1)N2` [Example 47, 6-Methyl-2-methylthio-5,6,8,9-tetrahydro[1,2,4]-triazolo[1,5-d][1,2,4,6]tetrazepine-5(7H)-thione-8-spiro-1'-cyclohexane], in the data set with mice, it took a dose of 200 mg/kg to reach the 50% effect level (ED50) and the Therapeutical index amounted to 10.0.

In turn, `CN1NC2(CCCC2)Nc2nc(N3CCOCC3)nn2C1=S` [Example 48, 6-Methyl-2-morpholino-5,6,8,9-tetrahydro[1,2,4]-triazolo[1,5-d][1,2,4,6]tetrazepine-5(7H)-thione-8-spiro-1'-cyclopentane] registered an ED50 with rats of 1.35 mg/kg.

In the data set with mice, `CN1NC2(CCCCCCCCCCC2)Nc2nc(N3CCOCC3)nn2C1=S` [Example 53, 6-Methyl-2-morpholino-5,6,8,9-tetrahydro-1,2,4-triazolo[1,5-d][1,2,4,6]tetrazepine-5(7H)-thione-8-spiro-1'-cyclododecane] gave a 50% effective dose (ED50) of 41 mg/kg and a Therapeutical index of 48.8. The ED50 in the data set with rats worked out at 1 mg/kg.

For the compound `COC(=O)CC1(C)Nc2nc(SC)nn2C(=S)N(C)N1` (centres unmarked) [Example 57, 6,8-Dimethyl-8-methoxycarbonyl-methyl-2-methylthio-5,6,8,9tetrahydro[1,2,4]triazolo[1,5-d][1,2,4,6]-tetrazepine-5(7H)-thione], the ED50 in the data set with rats amounted to 1.65 mg/kg.

Take `CCOC(=O)CCC1(C)Nc2nc(N3CCOCC3)nn2C(=S)N(C)N1` (centres unmarked) [Example 58, 6,8-Dimethyl-8-(ethoxycarbonyl-ethyl)-2-morpholino-5,6,8,9-tetrahydro[1,2,4]triazolo[1,5-d][1,2,4,6]-tetrazepine-5(7H)-thione]: in the data set with mice, the ED50 was found to be 160 mg/kg and the Therapeutical index is reported as 12.5.

On to `CCCC(C)(COC(N)=O)COC(N)=O` [Meprobamate, reference compound], for which, in the data set with mice, the ED50 was determined as 270 mg/kg and the Therapeutical index came to 4.1.

As to `CC(Cc1ccccc1)NCCC(c1ccccc1)c1ccccc1` (centres unmarked) [Prenylamine, reference compound], it took a dose of 6.5 mg/kg to reach the 50% effect level in the data set with rats (ED50).

The values are drawn from patent US5135928A, “Triazolo derivatives and process for their preparation” (Egis Gyogyszergyar, priority 1989, dated 1992).
